Target: T1, CB2 receptor (Mus musculus, UniProt P47936)
T1 construct: membranes were prepared from frozen mouse spleen; from tissue; host or cells: mouse spleen membranes
Experiment: CB2 receptor binding assay ([3H] CP-55,940 displacement, mouse spleen membranes)
Settings: CB2 (mouse spleen) versus CB1 (rat forebrain membranes) binding affinity
Experimental: As used herein, “binding affinity” (Ki) is represented by the IC50 value which is the concentration of an analog required to occupy the 50% of the total number (Bmax) of the receptors. The lower the IC50 value the higher the binding affinity. […] The AM1703 material was tested for CB2 receptor binding affinity and for CB1 receptor affinity (to determine selectivity for the CB2 receptor).
Membranes, previously frozen at −80° C., were thawed on ice. To the stirred suspension was added three volumes of TME (25 mM Tris-HCI buffer, 5 mM MgCl2 and 1 mM EDTA) at a pH 7.4. The suspension was incubated at 4° C. for 30 min. At the end of the incubation, the membranes were pelleted and washed three times with TME.
The treated membranes were subsequently used in the binding assay described below. Approximately 30 μg of membranes were incubated in silanized 96-well microtiter plate with TME containing 0.1% essentially fatty acid-free bovine serum albumin (BSA), 0.8 nM [^3H] […] Radioactivity was detected using MicroScint 20 scintillation cocktail added directly to the dried filterplates, and the filterplates were counted using a Packard Instruments Top-Count. Nonspecific binding was assessed using 100 nM CP-55,940. […] CP-55,940, determined using buffer and 100 nM CP-55,940. The normalized data was analyzed using a 4-parameter nonlinear logistic equation to yield IC50 values. […]

T1 sequence (P47936 whole entry): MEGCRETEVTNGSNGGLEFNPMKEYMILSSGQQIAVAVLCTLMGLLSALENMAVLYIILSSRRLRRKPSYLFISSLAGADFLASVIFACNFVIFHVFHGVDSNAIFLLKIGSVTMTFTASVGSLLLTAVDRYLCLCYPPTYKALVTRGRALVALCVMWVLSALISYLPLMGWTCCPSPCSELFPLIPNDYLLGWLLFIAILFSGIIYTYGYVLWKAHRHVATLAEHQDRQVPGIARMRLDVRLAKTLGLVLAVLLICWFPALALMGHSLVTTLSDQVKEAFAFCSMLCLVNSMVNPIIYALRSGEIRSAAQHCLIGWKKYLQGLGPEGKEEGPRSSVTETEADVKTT

C#CCCCCC(C)(C)c1cc(O)c([C@@H]2CC(=O)[C@@H]3C[C@H]2C3(C)C)c(O)c1 [AM1703]
CB2 selectivity over CB1: ~500 fold

Source: patent publication US7335688B2, “Bicyclic cannabinoid agonists for the cannabinoid receptor” (University of Connecticut, priority 1999, dated 2008)
